# Source: US20170333391A1, “METHOD FOR DELAYING THE ONSET OF PULMONARY FIBROSIS OR TREATING PULMONARY FIBROSIS” (EVERFRONT BIOTECH INC., priority 2016, published 2017)
# Experiments:
# [1] = tested on: Rat type II alveolar cell, L2 cell line; assay: Cell survival test (MTT analysis) under H2O2 oxidative stress; format: cell-based; details: 24 hours, control group = 100%
# Experimental: The rat type II alveolar cell, L2 cell line (ATCC® CCL149™) were seeded into a 96-well plate at a density of 5×10^3 cells/well, 48 wells in total (separated into a control group and five experimental groups, 8 wells for each group). The cells were cultured until the next day, and then the mediums were removed. Each group was respectively treated under the following conditions to conduct follow-up experiments:
# (1) Control group: cells were cultured in a F-12K medium (Kaighn's Modification of Ham's F-12 Medium, ATCC® 30-2004™) for 24 hours;
# (2) Group 1: cells were cultured in a F-12K medium containing H2O2 (0.1 mM) for 24 hours;
# (3) Group 2: cells were cultured in a F-12K medium containing H2O2 (0.1 mM) and compound (1) (5 μg/ml) for 24 hours;
# (4) Group 3: cells were cultured in a F-12K medium containing H2O2 (0.1 mM) and N-acetylcysteine (NAC) (2 mM) for 24 hours;
# (5) Group 4: cells were cultured in a F-12K medium containing H2O2 (0.2 mM) and compound (1) (5 μg/ml) for 24 hours; and
# (6) Group 5: cells were cultured in a F-12K medium containing H2O2 (0.2 mM) and NAC (2 mM) for 24 hours.
# The mediums were removed after culturing was complete, and then each group was respectively treated under the following conditions: F-12K mediums containing 10% of 3-(4,5-Dimethylthiazol-2-yl)-2,5-diphenyltetrazolium bromide (MTT) were added into each well, and cultured for 1 hour. Thereafter, the mediums were removed, and a suitable amount of dimethyl sulfoxide (DMSO) was added into the wells. An Enzyme-Linked ImmunoSorbent Assay reader (ELISA reader) was then used for detecting the absorbance of each group at a wavelength of 595 nm (OD595nm). The average value of each group was respectively calculated (n=8), and then the result of the control group served as the basis for calculating the relative survival rates of the other groups.
# Sox2 protein = Sox2 protein expression in transfected NHLF (pcDNA3.1 empty vector or pcDNA3.1-SOX2), western blotting (2-3); format: cell-based, human; details: TGF-β1 5 ng/ml 12 h
# Experimental: The pcDNA3.1 empty vector and the pcDNA3.1-SOX2 plasmid (i.e., pcDNA3.1 vector containing SOX2 gene) were respectively transfected into Normal Human lung fibroblasts (NHLF) by the Fugene HD cell transfection reagent. The cells were screened to obtain NHLFs containing the pcDNA3.1 empty vector or the pcDNA3.1-SOX2 plasmid.
# NHLFs containing the pcDNA3.1 empty vector were then seeded into 6 cm culture dishes at a density of 2×10^5 cells/dish, comprising a control group and three experimental groups (4 dishes in total). The cells were cultured until the next day, and then the mediums were removed. Each group was respectively treated under the following conditions to conduct follow-up experiments: • (1) Control group I: cells were cultured in a FGM-2 medium containing 1% serum for 36 hours; • (2) Group A: cells were cultured in a FGM-2 medium containing 1% serum and TGF-β1 (5 ng/ml) for 36 hours; • (3) Group B: cells were firstly cultured in a FGM-2 medium containing 1% serum and TGF-β1 (5 ng/ml) for 12 hours, and then compound (1) was added into the medium to provide a final concentration of 15 μg/ml; thereafter, the cells were cultured for another 24 hours; and • (4) Group C: cells were firstly cultured in a FGM-2 medium containing 1% serum and TGF-β1 (5 ng/ml) for 12 hours, and then compound (1) was added into the medium to provide a final concentration of 30 μg/ml; thereafter, the cells were cultured for another 24 hours.
# In another aspect, NHLFs containing the pcDNA3.1-SOX2 plasmid were seeded into the 6 cm culture dishes at a density of 2×10^5 cells/dish, comprising a control group and three experimental groups (4 dishes in total). The cells were cultured until the next day, and then the mediums were removed. Each group was respectively treated under the following conditions to conduct follow-up experiments: • (1) Control group II: cells were cultured in a FGM-2 medium containing 1% serum for 36 hours; • (2) Group D: cells were cultured in a FGM-2 medium containing 1% serum and TGF-β1 (5 ng/ml) for 36 hours; • (3) Group E: cells were firstly cultured in a FGM-2 medium containing 1% serum and TGF-β1 (5 ng/ml) for 12 hours, and then the compound (1) was added into the medium to provide a final concentration of 15 μg/ml; thereafter, the cells were cultured for another 24 hours; and • (4) Group F: cells were firstly cultured in a FGM-2 medium containing 1% serum and TGF-β1 (5 ng/ml) for 12 hours, and then the compound (1) was added into the medium to provide a final concentration of 30 μg/ml; thereafter, the cells were cultured for another 24 hours.
# Thereafter, the proteins in the cells of each group were extracted, and the expressions of Sox2 protein, TGF-β protein and type I collagen in the NHLF cells of each group were measured with western blotting. […]
smiles,measurement,setting,value
CCCC=C1OC(=O)c2ccccc21 [compound (1)],Relative survival rate,"[1]; Group 2: H2O2 0.1 mM + compound (1) 5 μg/ml, H2O2 0.1 mM alone = 38.9%",109.4%
same,Relative survival rate,[1]; Group 4: H2O2 0.2 mM + compound (1) 5 μg/ml,80.6%
same,Relative expression level (fold) Sox2 protein,"Sox2 protein; Group B: NHLF with pcDNA3.1 empty vector, then compound (1) 15 μg/ml 24 h, control group I = 1, TGF-β1-only group A = 1.55",1.81 fold
same,Relative expression level (fold) Sox2 protein,"Sox2 protein; Group C: NHLF with pcDNA3.1 empty vector, then compound (1) 30 μg/ml 24 h, control group I = 1, TGF-β1-only group A = 1.55",1.04 fold
same,Relative expression level (fold) Sox2 protein,"Sox2 protein; Group E: NHLF with pcDNA3.1-SOX2 plasmid, then compound (1) 15 μg/ml 24 h, control group II = 1, TGF-β1-only group D = 0.88",1.03 fold
same,Relative expression level (fold) Sox2 protein,"Sox2 protein; Group F: NHLF with pcDNA3.1-SOX2 plasmid, then compound (1) 30 μg/ml 24 h, control group II = 1, TGF-β1-only group D = 0.88",1.02 fold
